Test results reported in ChEMBL document CHEMBL5244230, “Artemisinin-derived hybrids and their anticancer activity” (Eur J Med Chem, 2020).

Columns and labels:
HeLa [1] = assay: Potency index, ratio of artesunate IC50 to test compound IC50 for antiproliferative activity against human HeLA cells assessed as inhibition of cell growth; type: functional
HCT-116 [2] = assay: Potency index, ratio of artesunate IC50 to test compound IC50 for antiproliferative activity against human HCT-116 cells assessed as inhibition of cell growth; type: functional
HCT-116 [3] = assay: Antiproliferative activity against human HCT-116 cells; type: functional, cell-based
HeLa [4] = assay: Antiproliferative activity against human HeLa cells; type: functional, cell-based
[5] = Antiproliferative activity against human 1205Lu cells; type: functional, cell-based
[6] = Cytotoxicity against human HFF cells; type: toxicity, cell-based
[7] = Potency index, ratio of artesunate IC50 to test compound IC50 for antiproliferative activity against human 1205Lu cells assessed as inhibition of cell growth; type: functional
MCF7 [8] = assay: Antiproliferative activity against doxorubicin resistant human MCF7 cells; type: functional, cell-based
[9] = Antiproliferative activity against mouse P388 cells assessed as reduction in cell viability measured after 72 hrs; type: functional, cell-based; settings: 72 h
HL-60 [10] = assay: Antiproliferative activity against human HL-60 cells assessed as reduction in cell viability measured after 72 hrs; type: functional, cell-based; settings: HL-60, 72 h
P388/ADR [11] = assay: Antiproliferative activity against mouse P388/ADR cells assessed as reduction in cell viability measured after 72 hrs; type: functional, cell-based; settings: 72 h
P388 = assay: Potency index, ratio of test compound IC50 to dihydroartemisinin IC50 for antiproliferative activity against mouse P388 cells assessed as reduction in cell viability measured after 72 hrs; type: functional
HL-60 [12] = assay: Potency index, ratio of test compound IC50 to dihydroartemisinin IC50 for antiproliferative activity against human HL-60 cells assessed as reduction in cell viability measured after 72 hrs; type: functional
P388/ADR [13] = assay: Potency index, ratio of test compound IC50 to dihydroartemisinin IC50 for antiproliferative activity against mouse P388/ADR cells assessed as reduction in cell viability measured after 72 hrs; type: functional
[14] = Antiproliferative activity against human Renal carcinoma cell; type: functional, cell-based
Ovarian cancer cell line [15] = assay: Antiproliferative activity against human Ovarian cancer cell line; type: functional, cell-based
Melanoma cell line [16] = assay: Antiproliferative activity against human Melanoma cell line; type: functional, cell-based
[17] = Antiproliferative activity against human leukaemia cell line; type: functional, cell-based
Breast carcinoma cell [18] = assay: Antiproliferative activity against human Breast cancer cell line; type: functional, cell-based
leukaemia cell line = assay: Potency index, ratio of artemisinin IC50 to test compound IC50 for antiproliferative activity against human leukaemia cell line assessed as inhibition of cell growth; type: functional
Melanoma cell line [19] = assay: Potency index, ratio of artemisinin IC50 to test compound IC50 for antiproliferative activity against human Melanoma cell line assessed as inhibition of cell growth; type: functional
Ovarian cancer cell line [20] = assay: Potency index, ratio of artemisinin IC50 to test compound IC50 for antiproliferative activity against human Ovarian cancer cell line assessed as inhibition of cell growth; type: functional
Prostatic carcinoma cell = assay: Potency index, ratio of artemisinin IC50 to test compound IC50 for antiproliferative activity against human Prostatic carcinoma cell assessed as inhibition of cell growth; type: functional
Breast carcinoma cell [21] = assay: Potency index, ratio of artemisinin IC50 to test compound IC50 for antiproliferative activity against human Breast carcinoma cell assessed as inhibition of cell growth; type: functional
P388/ADR [22] = assay: Potency index, ratio of doxorubicin IC50 to test compound IC50 for antiproliferative activity against mouse P388/ADR cells assessed as reduction in cell viability measured after 72 hrs; type: functional
A549 [23] = assay: Antiproliferative activity against human A549 cells; type: functional, cell-based
K562 = assay: Antiproliferative activity against human K562 cells; type: functional, cell-based
PC-3 = assay: Antiproliferative activity against human PC-3 cells; type: functional, cell-based
A-431 = assay: Antiproliferative activity against human A-431 cells; type: functional, cell-based
MDA-MB-231 [24] = assay: Antiproliferative activity against human MDA-MB-231 cells; type: functional, cell-based; settings: Homo sapiens, MDA-MB-231
COLO 205 = assay: Antiproliferative activity against human COLO 205 cells; type: functional, cell-based
HEK293 = assay: Antiproliferative activity against human HEK293 cells; type: functional, cell-based
[25] = Cytotoxicity against human HEK293 cells; type: toxicity, cell-based
MDA-MB-231 [26] = assay: Antiproliferative activity against human MDA-MB-231 cells assessed as reduction in cell viability; type: functional, cell-based
MCF7 [27] = assay: Anticancer activity against human MCF7 cells; type: functional, cell-based
HCT-15 [28] = assay: Antiproliferative activity against human HCT-15 cells assessed as inhibition of cell growth at 50 uM relative to control; type: functional; parameters: scale not given: the % may be the effect or the level left
HepG2 = assay: Antiproliferative activity against human HepG2 cells assessed as cell growth inhibition by MTT assay; type: functional, cell-based
A549 [29] = assay: Antiproliferative activity against human A549 cells assessed as inhibition of cell growth at 50 uM relative to control; type: functional; parameters: scale not given: the % may be the effect or the level left
THP-1 = assay: Antiproliferative activity against human THP-1 cells assessed as inhibition of cell growth at 50 uM relative to control; type: functional; parameters: scale not given: the % may be the effect or the level left
HEp-2 = assay: Antiproliferative activity against human HEp-2 cells assessed as inhibition of cell growth at 50 uM relative to control; type: functional; parameters: scale not given: the % may be the effect or the level left
A549 [30] = assay: Antiproliferative activity against human A549 cells assessed as cell growth inhibition by MTT assay; type: functional, cell-based
HCT-15 [31] = assay: Antiproliferative activity against human HCT-15 cells assessed as cell growth inhibition by MTT assay; type: functional, cell-based
[32] = Cytotoxicity against human HCEC cells; type: toxicity, cell-based
SMMC-7721 = assay: Antiproliferative activity against human SMMC-7721 cells; type: functional, cell-based
C2G cell line = assay: Antiproliferative activity against mouse C2G cell line; type: functional, cell-based

C[C@H]1[C@@H](CC(C[C@H]2O[C@@H]3O[C@@]4(C)CC[C@H]5[C@H](C)CC[C@@H]([C@H]2C)[C@@]35OO4)CS(=O)(=O)c2ccc(CO)cc2)O[C@@H]2O[C@@]3(C)CC[C@H]4[C@H](C)CC[C@@H]1[C@@]24OO3 (some centres undefined)
Ratio IC50 (HeLa [1]): 12.6 | Ratio IC50 (HCT-116 [2]): 12.6 | IC50 (HCT-116 [3]): 0.07 µM | IC50 (HeLa [4]): 0.07 µM | IC50 [5]: 0.07 µM | IC50 [6]: 57.5 µM | Ratio IC50 [7]: 12.6

C[C@H]1[C@@H](Oc2ccc(CCn3ccnn3)cc2)O[C@@H]2O[C@@]3(C)CC[C@H]4[C@H](C)CC[C@@H]1[C@@]24OO3
IC50 (MCF7 [8]): 0.047 µM | IC50 [9]: 0.047 µM | IC50 (HL-60 [10]): 0.065 µM | IC50 (P388/ADR [11]): 2.89 µM | Ratio IC50 (P388): 4.6 | Ratio IC50 (HL-60 [12]): 4.6 | Ratio IC50 (P388/ADR [13]): 4.6

C[C@H]1[C@@H](CC(C[C@H]2O[C@@H]3O[C@@]4(C)CC[C@H]5[C@H](C)CC[C@@H]([C@H]2C)[C@@]35OO4)CS(=O)(=O)c2ccc(COC(=O)N(C)C)cc2)O[C@@H]2O[C@@]3(C)CC[C@H]4[C@H](C)CC[C@@H]1[C@@]24OO3 (some centres undefined)
Ratio IC50 (HeLa [1]): 12.6 | Ratio IC50 (HCT-116 [2]): 12.6 | IC50 (HCT-116 [3]): 0.07 µM | IC50 (HeLa [4]): 0.07 µM | IC50 [5]: 0.07 µM | IC50 [6]: 4.9 µM | Ratio IC50 [7]: 12.6

C[C@H]1[C@@H](OC/C(=N\O)O[C@H]2O[C@@H]3O[C@@]4(C)CC[C@H]5[C@H](C)CC[C@@H]([C@H]2C)[C@@]35OO4)O[C@@H]2O[C@@]3(C)CC[C@H]4[C@H](C)CC[C@@H]1[C@@]24OO3
IC50 [14]: 0.055 µM | IC50 (Ovarian cancer cell line [15]): 0.055 µM | IC50 (Melanoma cell line [16]): 0.055 µM | IC50 [17]: 0.055 µM | IC50 (Breast carcinoma cell [18]): 0.055 µM | Ratio IC50 (leukaemia cell line): >=4 | Ratio IC50 (Melanoma cell line [19]): >=4 | Ratio IC50 (Ovarian cancer cell line [20]): >=4 | Ratio IC50 (Prostatic carcinoma cell): >=4 | Ratio IC50 (Breast carcinoma cell [21]): >=4 | Ratio IC50 (P388/ADR [22]): >=4

C[C@H]1[C@@H](OCc2cn(-c3ccccc3C(=O)/C=C/c3ccccc3C(F)(F)F)nn2)O[C@@H]2O[C@@]3(C)CC[C@H]4[C@H](C)CC[C@@H]1[C@@]24OO3
IC50 (A549 [23]): 4.06 µM | IC50 (K562): 4.06 µM | IC50 (PC-3): 4.06 µM | IC50 (A-431): 4.06 µM | IC50 (MDA-MB-231 [24]): 4.06 µM | IC50 (COLO 205): 4.06 µM | IC50 (HEK293): 4.06 µM | IC50 [25]: > 100 µg/mL

C[C@@H]1CC[C@H]2[C@@H](C)C(=O)O[C@@H]3O[C@@]4(C)CC[C@@H]1[C@]32OO4 [ARTEMISININ]
IC50 (MDA-MB-231 [26]): > 50 µM | IC50 (MCF7 [27]): > 50 µM | IC50 (A549 [23]): > 50 µM | IC50 [14]: ≥ 40 µM | IC50 (Ovarian cancer cell line [15]): ≥ 40 µM | IC50 (Melanoma cell line [16]): ≥ 40 µM | IC50 [17]: ≥ 40 µM | IC50 (K562): 39 µM | IC50 (PC-3): 39 µM | IC50 (A-431): 39 µM | IC50 (MDA-MB-231 [24]): 39 µM | IC50 (COLO 205): 39 µM | IC50 (HEK293): 39 µM | Activity (HCT-15 [28]): 21% | IC50 (HepG2): > 300 µM | Activity (A549 [29]): 21% | Activity (THP-1): 21% | Activity (HEp-2): 21% | IC50 (A549 [30]): > 300 µM | IC50 (HCT-15 [31]): > 300 µM | IC50 (Breast carcinoma cell [18]): ≥ 40 µM | IC50 [32]: > 50 µM | IC50 (SMMC-7721): 0.44 µM

Nc1ccn([C@@H]2O[C@H](CO)[C@@H](O)C2(F)F)c(=O)n1 [GEMCITABINE]
IC50 (C2G cell line): 0.0037 µM
